Results taken from ChEMBL document CHEMBL1122707, “Pyrroloisoquinoline antidepressants. Potent, enantioselective inhibition of tetrabenazine-induced ptosis and neuronal uptake of norepinephrine, dopamine, and serotonin” (J Med Chem, 1984).

Key:
Mus musculus [1] = assay: Inhibition of tetrabenazine (TBZ)-induced ptosis in mice (administered ip); type: functional
Mus musculus [2] = assay: Inhibition of tetrabenazine (TBZ)-induced depression of motor activity (MA) in mice (administered ip); type: functional
[3] = target: Norepinephrine transporter (Rattus norvegicus, UniProt Q9WTR4); assay: Inhibition of norepinephrine (NE) into rat brain synaptosomes; type: functional, subcellular
Chain of Norepinephrine transporter (Q9WTR4 whole entry): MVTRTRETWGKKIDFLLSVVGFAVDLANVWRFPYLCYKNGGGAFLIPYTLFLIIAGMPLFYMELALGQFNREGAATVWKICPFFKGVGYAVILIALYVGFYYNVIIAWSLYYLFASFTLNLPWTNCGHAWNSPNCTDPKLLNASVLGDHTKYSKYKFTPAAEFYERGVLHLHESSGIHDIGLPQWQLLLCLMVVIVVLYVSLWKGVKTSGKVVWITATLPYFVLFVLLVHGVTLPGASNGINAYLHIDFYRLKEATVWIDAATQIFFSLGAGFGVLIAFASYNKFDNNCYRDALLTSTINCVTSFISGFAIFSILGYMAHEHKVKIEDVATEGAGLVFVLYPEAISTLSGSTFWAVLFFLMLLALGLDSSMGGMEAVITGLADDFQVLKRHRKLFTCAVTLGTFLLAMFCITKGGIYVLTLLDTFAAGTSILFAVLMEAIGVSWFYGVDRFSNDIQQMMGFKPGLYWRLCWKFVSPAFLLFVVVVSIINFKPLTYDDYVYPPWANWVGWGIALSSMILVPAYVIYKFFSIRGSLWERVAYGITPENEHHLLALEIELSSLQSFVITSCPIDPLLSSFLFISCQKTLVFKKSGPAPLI

[4] = target: Sodium-dependent dopamine transporter (Rattus norvegicus, UniProt P23977); assay: Inhibition of dopamine (DA) uptake into rat brain synaptosomes; type: functional, subcellular
Chain of Sodium-dependent dopamine transporter (P23977 whole entry): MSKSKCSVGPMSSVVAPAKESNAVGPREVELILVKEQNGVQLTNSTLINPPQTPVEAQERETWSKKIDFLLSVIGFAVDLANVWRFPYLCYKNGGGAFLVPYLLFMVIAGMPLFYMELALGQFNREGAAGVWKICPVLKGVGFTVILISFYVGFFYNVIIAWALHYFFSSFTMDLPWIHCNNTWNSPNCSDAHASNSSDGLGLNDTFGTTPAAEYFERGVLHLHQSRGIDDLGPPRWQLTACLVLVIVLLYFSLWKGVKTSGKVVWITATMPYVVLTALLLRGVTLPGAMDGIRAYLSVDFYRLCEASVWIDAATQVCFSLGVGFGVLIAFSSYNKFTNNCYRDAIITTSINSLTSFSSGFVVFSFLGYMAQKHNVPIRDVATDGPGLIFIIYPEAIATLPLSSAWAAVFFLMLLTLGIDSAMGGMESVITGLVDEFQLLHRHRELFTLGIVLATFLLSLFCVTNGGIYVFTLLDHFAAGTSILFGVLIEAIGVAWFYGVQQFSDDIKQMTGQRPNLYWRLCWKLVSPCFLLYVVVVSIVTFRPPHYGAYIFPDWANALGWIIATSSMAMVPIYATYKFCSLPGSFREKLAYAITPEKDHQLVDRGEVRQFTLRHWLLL

[5] = target: Sodium-dependent serotonin transporter (Rattus norvegicus, UniProt P31652); assay: Inhibition of serotonin (5-HT) uptake into rat brain synaptosomes; type: subcellular
Chain of Sodium-dependent serotonin transporter (P31652 whole entry): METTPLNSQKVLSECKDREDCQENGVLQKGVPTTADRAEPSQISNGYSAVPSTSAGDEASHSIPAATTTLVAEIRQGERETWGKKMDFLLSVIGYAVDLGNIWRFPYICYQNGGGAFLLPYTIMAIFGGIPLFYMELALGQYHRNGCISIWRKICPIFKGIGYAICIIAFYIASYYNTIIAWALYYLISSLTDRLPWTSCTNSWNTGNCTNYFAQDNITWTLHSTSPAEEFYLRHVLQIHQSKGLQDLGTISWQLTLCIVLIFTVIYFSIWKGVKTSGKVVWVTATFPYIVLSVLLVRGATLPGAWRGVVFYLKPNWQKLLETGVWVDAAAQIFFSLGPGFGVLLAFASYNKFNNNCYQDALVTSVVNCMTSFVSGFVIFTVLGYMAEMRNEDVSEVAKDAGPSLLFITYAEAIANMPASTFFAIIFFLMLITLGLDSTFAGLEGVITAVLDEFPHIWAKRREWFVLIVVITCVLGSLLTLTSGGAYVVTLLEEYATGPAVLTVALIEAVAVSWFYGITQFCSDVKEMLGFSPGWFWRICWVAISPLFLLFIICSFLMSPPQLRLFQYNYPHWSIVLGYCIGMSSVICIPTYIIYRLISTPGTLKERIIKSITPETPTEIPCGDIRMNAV

Mus musculus [6] = assay: Compound was evaluated for the inhibition of tetrabenazine (TBZ)-induced ptosis in mice (administered sc); type: functional
Mus musculus [7] = assay: Compound was evaluated for the inhibition of tetrabenazine (TBZ)-induced depression of motor activity (MA) in mice (administered sc); type: functional
[8] = Mus musculus, ip, read-out: ED50

Ki [3] [nM] | Ki [4] [nM] | Ki [5] [nM] | SMILES | ED50 (Mus musculus [1]; [8]) [mg/kg] | ED50 (Mus musculus [2]) [mg/kg] | ED50 (Mus musculus [1]) [mg/kg] | ED50 (Mus musculus [6]) [mg/kg] | ED50 (Mus musculus [7]) [mg/kg]
 |  |  | c1ccc([C@H]2CN3CCC[C@H]3c3ccccc32)cc1 | 0.07 | 0.34 |  |  | 
20 | > 500 |  | c1ccc(C2CN3CCCCC3c3ccccc32)cc1 (stereo not given) | > 30 | > 30 |  |  | 
10 | 30 |  | Br.Nc1ccc([C@@H]2CN3CCC[C@H]3c3ccccc32)cc1 | 0.4 | 1.4 |  |  | 
0.2 | 0.86 |  | Br.Nc1ccc([C@H]2CN3CCC[C@H]3c3ccccc32)cc1 | 0.02 | > 1 |  |  | 
0.95 | 54.3 |  | Cl.FC(F)(F)c1cccc([C@H]2CN3CCC[C@H]3c3ccccc32)c1 | 0.43 | 1.2 |  |  | 
> 100 | > 1000 |  | Cl.FC(F)(F)c1cccc([C@@H]2CN3CCC[C@H]3c3ccccc32)c1 | > 60 | > 60 |  |  | 
 | 36.8 |  | CSc1ccc([C@@H]2CN3CCC[C@H]3c3ccccc32)cc1 | 0.4 | > 30 |  |  | 
3.4 | 94.2 |  | Br.O=[N+]([O-])c1ccc(C2CN3CCC[C@H]3c3ccccc32)cc1 (stereo not given in full) | 0.14 | 0.34 |  |  | 
100 | > 100 | > 5000 | Br.c1ccc(C2CN3CCCCCC3c3ccccc32)cc1 (stereo not given) | > 30 | 30 |  |  | 
0.79 | 5.2 |  | Br.COc1ccc(C2CN3CCC[C@H]3c3ccccc32)cc1 (stereo not given in full) | 0.03 | 0.27 |  |  | 
0.74 | 5.1 |  | Br.Oc1ccc(C2CN3CCC[C@H]3c3ccccc32)cc1 (stereo not given in full) | 0.09 | 0.4 |  |  | 
 |  |  | Br.Clc1ccc(C2CN3CCC[C@H]3c3ccccc32)cc1 (stereo not given in full) | 0.34 | 0.55 |  |  | 
0.81 | 10.1 |  | Br.Oc1ccc(C2CN3CCC[C@H]3c3ccccc32)cc1O (stereo not given in full) | 0.11 | 0.19 |  |  | 
3.4 | 71.9 |  | Br.COc1ccc(C2CN3CCC[C@H]3c3ccccc32)cc1OC (stereo not given in full) | 0.11 | 0.45 |  |  | 
 | 4.4 |  | Cl.c1ccc(C2CN3CCC[C@H]3c3ccccc32)cc1 (single isomer, unassigned; (+)) | 0.05 | 0.59 |  |  | 
 | 160 |  | Cl.c1ccc([C@H]2CN3CCC[C@H]3c3ccccc32)cc1 (stereo in doubt; 5a) |  |  | >30 |  | 
 | 1340 |  | Cl.c1ccc([C@H]2CN3CCC[C@H]3c3ccccc32)cc1 (stereo in doubt; (-)-5b) |  | > 30 | 8.3 |  | 
 |  |  | CNCCCN1c2ccccc2CCc2ccccc21.Cl [DESIPRAMINE HYDROCHLORIDE] |  |  |  | 0.05 | 0.07
 |  |  | CN(C)CCCN1c2ccccc2CCc2ccccc21.Cl [IMIPRAMINE HYDROCHLORIDE] | 0.98 | 0.58 |  |  | 
3.8 |  |  | CN1Cc2c(N)cccc2C(c2ccccc2)C1 (stereo not given) [NOMIFENSINE] |  |  |  |  | 

SMILES | Ki [3] [nM] | Ki [4] [nM] | Ki [5] [nM] | ED50 (Mus musculus [1]; [8]) [mg/kg] | ED50 (Mus musculus [2]) [mg/kg] | ED50 (Mus musculus [1]) [mg/kg] | ED50 (Mus musculus [6]) [mg/kg] | ED50 (Mus musculus [7]) [mg/kg]
Clc1ccc(C2CN3CCC[C@H]3c3ccccc32)cc1Cl (stereo not given in full) | 0.68 | 0.99 |  | 0.14 | 0.39 |  |  | 
COc1ccc2c(c1)CN(C)CC2c1ccc(Cl)c(Cl)c1 (stereo not given) [DICLOFENSINE] | 4.4 | 14.6 |  |  |  |  |  | 
CN1CCN2c3ccccc3Cc3ccccc3C2C1 (stereo not given) [MIANSERIN] | 26 | > 10000 |  | 9.7 | > 30 |  |  | 
